A word on the IC50: it is the midpoint of a concentration-inhibition curve. Higher therefore signals a need for much substance. Usually inhibition stands for the change of the read-out against control, counted positive when it falls.

Results on five compounds are retold here after patent publication US9127001B2, “Substituted 4,5,6,7-tetrahydro-1H-pyrazolo[4,3-c]pyridines, their use as medicament, and pharmaceutical preparations comprising them” (Sanofi, priority 2011, dated 2015).

In test [1] the test system is left atrium of the anesthetized pig. The test is described as follows: Refractory period and left-atrial vulnerability in the anesthetized pig. In kind it is in vivo. To be noted: bolus 1 mg/kg, mean value n = 3. The procedure:
Investigation of the Refractory Period and the Left-Atrial Vulnerability in the Pig
The compounds were tested for prolongation of the refractory period and antiarrhythmic activity on the atrium of the anesthetized pig as described in the literature (Knobloch et al. 2002. Naunyn-Schmiedberg's Arch. Pharmacol. 366; 482-487). Here the anti-arrhythmic action relates to the inhibition of the occurrence of episodes of arrhythmias which are induced by a prematurely placed extra-stimulus (S2) in the left atrium (=left-atrial vulnerability). The refractory period values are stated in percent of the basal values 15 minutes after injection. Mean values for the refractory periods are shown from three rates (150, 200 and 250/min).
The action of 3-[5-Acetyl-1-(2,4-difluoro-benzyl)-4,5,6,7-tetrahydro-1H-pyrazolo[4,3-c]pyridin-3-yl]-benzonitrile (6a) on the refractory period of the left atrium and antiarrhythmic activity in the anesthetized pig after a bolus administration of 1 mg/kg is shown in table 1. From the results shown in table 1, it is seen that it was possible to prevent 61% of the induced arrhythmias.

The target in test [2] is Human TASK-1 channels (Homo sapiens (Human), UniProt O14649). Description: Activity on the TASK-1 channel in Xenopus oocytes (two-microelectrode voltage clamp). Format: cell-based. The note with it: for IC50: human TASK-1 expressed in Xenopus oocytes, currents during pulses to 40 mV, room temperature. An outline of the steps: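 Human TASK-1 was expressed in defolliculated Xenopus laevis oocytes by in vitro-synthesised RNA injection and recorded by two-microelectrode voltage clamp. Oocytes were superfused with ND96 (pH 7.4) at room temperature, with compound added at rising concentrations. IC50 came from a general dose-response fit.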

Each structure is given as a SMILES string. A value given as a limit tells only on which side of the number the result lay.

Sequence of Human TASK-1 channels (O14649 whole entry, the tested form may be a part): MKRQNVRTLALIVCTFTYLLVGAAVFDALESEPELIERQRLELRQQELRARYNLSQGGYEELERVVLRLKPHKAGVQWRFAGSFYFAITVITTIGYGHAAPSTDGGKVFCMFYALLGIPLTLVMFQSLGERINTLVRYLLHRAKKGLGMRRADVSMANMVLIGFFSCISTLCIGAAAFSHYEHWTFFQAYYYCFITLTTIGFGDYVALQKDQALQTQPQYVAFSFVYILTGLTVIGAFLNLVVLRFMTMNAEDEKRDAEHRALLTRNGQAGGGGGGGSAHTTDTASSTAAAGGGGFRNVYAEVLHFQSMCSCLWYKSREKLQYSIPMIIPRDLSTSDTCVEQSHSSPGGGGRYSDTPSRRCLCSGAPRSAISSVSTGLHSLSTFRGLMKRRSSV

As for `CC(=O)N1CCc2c(c(-c3cccc(C#N)c3)nn2Cc2ccc(F)cc2F)C1` [Example 6a, 3-[5-Acetyl-1-(2,4-difluoro-benzyl)-4,5,6,7-tetrahydro-1H-pyrazolo[4,3-c]pyridin-3-yl]-benzonitrile], the “% inhibition of the arrhythmias” value in test [1] (S2-induced arrhythmias, 3 measurements before vs. 3 during first hour after administration) was found to be 61%. Besides, the “% increase in the refractory period” value in test [1] (left atrium, 15 minutes after injection, mean of three rates (150, 200 and 250/min)) came out at 14%. The same compound displayed an IC50 in test [2] of 0.095 µM. In turn, `CN(CCO)C(=O)N1CCc2c(c(-c3cccc(C#N)c3)nn2Cc2ccc(F)cc2F)C1` [Example 12e, 3-(3-Cyano-phenyl)-1-(2,4-difluoro-benzyl)-1,4,6,7-tetrahydro-pyrazolo[4,3-c]pyridine-5-carboxylic acid (2-hydroxy-ethyl)-methyl-amide] had an inhibition at 5 µM in test [2] of 65%.

In test [2], `CC(=O)N1CCc2c(c(-c3cc(C#N)ccn3)nn2Cc2ccc(F)cc2F)C1` [Example 13a, 2-[5-Acetyl-1-(2,4-difluoro-benzyl)-4,5,6,7-tetrahydro-1H-pyrazolo[4,3-c]pyridin-3-yl]-isonicotinonitrile] gave an IC50 of 0.422 µM. In turn, `CC(=O)N1CCc2c(c(-c3cccc(C#N)n3)nn2Cc2ccc(F)cc2F)C1` [Example 13b, 6-[5-Acetyl-1-(2,4-difluoro-benzyl)-4,5,6,7-tetrahydro-1H-pyrazolo[4,3-c]pyridin-3-yl]-pyridine-2-carbonitrile] returned a concentration for half-maximal inhibition (IC50) in test [2] of 0.462 µM. On the same count and under the same terms, the same measure for `N#Cc1cccc(-c2nn(Cc3ccc(F)cc3F)c3c2CN(C(=O)CO)CC3)c1` [Example 14a, 3-[1-(2,4-Difluoro-benzyl)-5-(2-hydroxy-acetyl)-4,5,6,7-tetrahydro-1H-pyrazolo[4,3-c]pyridin-3-yl]-benzonitrile]: less than 10 µM.
